Laboratory results from paper PMC8119466, “A screen of FDA-approved drugs identifies inhibitors of protein tyrosine phosphatase 4A3 (PTP4A3 or PRL-3)” (Scientific Reports, 2021).
Counter-ions that a name gives are not always drawn. Like-named read-outs stand apart in the source and are kept apart here.

Tests used:
Assay type in all cases: biochemical
recombinant PRL-1 = biological target: T1, recombinant PRL-1 (Homo sapiens, UniProt Q93096); assay: In vitro phosphatase assay (DiFMUP hydrolysis), PRL-1; note: test concentration or dose not given here
T1 construct: 6xHis (N, cleaved yes); made in house; host or cells: E. coli One Shot BL21 Star
T1 sequence (Q93096 1-173): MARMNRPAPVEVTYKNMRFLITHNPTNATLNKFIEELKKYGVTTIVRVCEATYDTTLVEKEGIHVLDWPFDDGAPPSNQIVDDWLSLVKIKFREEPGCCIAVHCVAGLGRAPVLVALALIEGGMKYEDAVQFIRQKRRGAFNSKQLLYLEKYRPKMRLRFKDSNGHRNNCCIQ

recombinant PRL-2 = biological target: T2, recombinant PRL-2 (Homo sapiens, UniProt Q12974); assay: In vitro phosphatase assay (DiFMUP hydrolysis), PRL-2;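 note: PRL-2 activity read as DiFMUP hydrolysis after 20 min at room temperature with drug, enzyme first pre-reduced at 4 °C for 20 min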
T2 construct: 6xHis (N, cleaved yes); made in house; host or cells: E. coli One Shot BL21 Star
T2 sequence (Q12974 1-167): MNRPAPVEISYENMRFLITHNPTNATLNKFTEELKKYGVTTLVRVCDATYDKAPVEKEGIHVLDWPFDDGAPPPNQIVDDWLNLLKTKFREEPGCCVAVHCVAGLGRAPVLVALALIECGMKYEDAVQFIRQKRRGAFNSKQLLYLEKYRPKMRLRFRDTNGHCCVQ

recombinant PRL-3 = biological target: T3, recombinant PRL-3 (Homo sapiens, UniProt O75365); assay: In vitro phosphatase assay (DiFMUP hydrolysis), PRL-3; note: test concentration or dose not given here
T3 construct: 6xHis (N, cleaved yes); made in house; host or cells: E. coli One Shot BL21 Star
T3 sequence (O75365 whole entry): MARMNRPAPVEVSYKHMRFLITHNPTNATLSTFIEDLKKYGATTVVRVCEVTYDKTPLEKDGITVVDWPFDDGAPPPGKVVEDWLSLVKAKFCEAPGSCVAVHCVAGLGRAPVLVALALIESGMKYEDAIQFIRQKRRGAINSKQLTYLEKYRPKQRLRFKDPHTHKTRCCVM

[1] = FDA-approved drug screen, compared to DMSO
[2] = FDA-approved drug screen, activity compared to DMSO

Row | SMILES | % Phosphatase Activity (compared to DMSO) PRL-1 (recombinant PRL-1; [1]) [%] | % Phosphatase Activity (compared to DMSO) PRL-2 (recombinant PRL-2; [1]) [%] | % Phosphatase Activity (compared to DMSO) PRL-3 (recombinant PRL-3; [1]) [%] | further results
1 | CCOC(=O)CCC(=O)O[C@H]1[C@H](O[C@@H]2[C@@H](C)[C@H](O[C@H]3C[C@@](C)(OC)[C@@H](O)[C@H](C)O3)[C@@H](C)C(=O)O[C@H](CC)[C@@](C)(O)[C@H](O)[C@@H](C)C(=O)[C@H](C)C[C@@]2(C)O)O[C@H](C)C[C@@H]1N(C)C [Erythromycin Ethylsuccinate] | 85 | 82 | 71 | 
2 | CC(C)NC[C@H](O)COc1ccc(CCOCC2CC2)cc1.Cl [Levobetaxolol HCl] |  |  |  | % Phosphatase Activity (compared to DMSO) PRL-1 (recombinant PRL-1): 100%; % Phosphatase Activity (compared to DMSO) PRL-2 (recombinant PRL-2): 99%; % Phosphatase Activity (compared to DMSO) PRL-3 (recombinant PRL-3): 69%
3 | C1CNCCN1 [Piperazine] |  |  |  | % Phosphatase Activity (compared to DMSO) PRL-1 (recombinant PRL-1): 95%; % Phosphatase Activity (compared to DMSO) PRL-2 (recombinant PRL-2): 112%; % Phosphatase Activity (compared to DMSO) PRL-3 (recombinant PRL-3): 71%
4 | Cc1cn(-c2cc(NC(=O)c3ccc(C)c(Nc4nccc(-c5cccnc5)n4)c3)cc(C(F)(F)F)c2)cn1 [Nilotinib (AMN-107)] | 83 | 92 | 76 | 
5 | CC(=O)[C@@]1(O)CC[C@H]2[C@@H]3CCC4=CC(=O)CCC4=C3[C@@H](c3ccc(N(C)C)cc3)C[C@@]21C [Ulipristal] |  |  |  | % Phosphatase Activity (compared to DMSO) PRL-1 (recombinant PRL-1; [2]): 95%; % Phosphatase Activity (compared to DMSO) PRL-2 (recombinant PRL-2; [2]): 92%; % Phosphatase Activity (compared to DMSO) PRL-3 (recombinant PRL-3; [2]): 79%
6 | COC(=O)C1=C(C)NC(C)=C(C(=O)OCC(C)C)C1c1ccccc1[N+](=O)[O-] (stereo not drawn) [Nisoldipine] | 81 | 75 | 85 | 
7 | O=C(O)CCCc1ccc(N(CCCl)CCCl)cc1 [Chloroambucil] | 98 | 103 | 77 | 
8 | C[C@@H]1[C@H](O)[C@@H](C)/C=C/C=C/C=C/C=C/C=C/C=C/C=C/[C@H](O[C@@H]2O[C@H](C)[C@@H](O)[C@H](N)[C@@H]2O)C[C@@H]2O[C@](O)(C[C@@H](O)C[C@@H](O)[C@H](O)CC[C@@H](O)C[C@@H](O)CC(=O)O[C@H]1C)C[C@H](O)[C@H]2C(=O)O [Amphotericin B] | 102 | 92 | 80 | 
9 | CN(C(=O)c1ccc(F)cc1C(F)(F)F)C1CCN(c2nnc(-c3ccnn3C)c3ccccc23)CC1 [Taladegib (LY2940680)] |  |  |  | % Phosphatase Activity (compared to DMSO) PRL-1 (recombinant PRL-1; [2]): 91%; % Phosphatase Activity (compared to DMSO) PRL-2 (recombinant PRL-2; [2]): 107%; % Phosphatase Activity (compared to DMSO) PRL-3 (recombinant PRL-3; [2]): 86%
10 | Cl.Cl.Clc1ccc(Nc2nnc(Cc3ccncc3)c3ccccc23)cc1 [Vatalanib (PTK787) 2HCl] |  |  |  | % Phosphatase Activity (compared to DMSO) PRL-1 (recombinant PRL-1; [2]): 109%; % Phosphatase Activity (compared to DMSO) PRL-2 (recombinant PRL-2; [2]): 96%; % Phosphatase Activity (compared to DMSO) PRL-3 (recombinant PRL-3; [2]): 72%
11 | NC(=O)CN1CC(O)CC1=O (stereo not drawn) [Oxiracetam] | 94 | 122 | 71 | 
12 | Cl.O=C(OCC(O)CO)c1ccccc1Nc1ccnc2cc(Cl)ccc12 (stereo not drawn) [Glafenine HCl] | 77 | 71 | 80 | 
13 | Cc1[nH]c2ccccc2c1CCNCc1ccc(/C=C/C(=O)NO)cc1 [Panobinostat (LBH589)] | 95 | 102 | 83 | 
14 | Cc1c(C(=O)Nc2ccc(N3C[C@@H](C)O[C@@H](C)C3)nc2)cccc1-c1ccc(OC(F)(F)F)cc1 [LDE225 (NVP-LDE225,Erismodegib)] | 97 | 111 | 83 | 
15 | NC(=O)CCC(N)C(=O)O (stereo in doubt) [D-glutamine] | 96 | 80 | 94 | 
16 | NC(=O)c1cccnc1 [Nicotinamide (Vitamin B3)] | 88 | 95 | 98 | 
17 | CCN(CC)CCOc1ccc(C(=C(Cl)c2ccccc2)c2ccccc2)cc1 [Clomifene citrate] | 120 | 128 | 96 | 
18 | O=C(O[C@H]1C[C@H]2CC[C@@H](C1)[N+]21CCCC1)C(O)(c1ccccc1)c1ccccc1 [Trospium chloride] |  |  |  | % Phosphatase Activity (compared to DMSO) PRL-1 (recombinant PRL-1; [2]): 109%; % Phosphatase Activity (compared to DMSO) PRL-2 (recombinant PRL-2; [2]): 109%; % Phosphatase Activity (compared to DMSO) PRL-3 (recombinant PRL-3; [2]): 83%
19 | C[C@H](Cn1cnc2c(N)ncnc21)OCP(=O)(O)O [Tenofovir] |  |  |  | % Phosphatase Activity (compared to DMSO) PRL-1 (recombinant PRL-1; [2]): 103%; % Phosphatase Activity (compared to DMSO) PRL-2 (recombinant PRL-2; [2]): 120%; % Phosphatase Activity (compared to DMSO) PRL-3 (recombinant PRL-3; [2]): 100%
20 | Cl.Nc1c(Br)cc(Br)cc1CN[C@H]1CC[C@H](O)CC1 [Ambroxol HCl] | 105 | 117 | 98 | 

The next lines start with results.

Row | % Phosphatase Activity (compared to DMSO) PRL-1 (recombinant PRL-1; [1]) [%] | % Phosphatase Activity (compared to DMSO) PRL-2 (recombinant PRL-2; [1]) [%] | % Phosphatase Activity (compared to DMSO) PRL-3 (recombinant PRL-3; [1]) [%] | SMILES | further results
21 | 93 | 78 | 94 | Nc1ccn([C@@H]2O[C@H](CO)[C@@H](O)C2(F)F)c(=O)n1 [Gemcitabine HCl] | 
22 | 110 | 109 | 84 | CCCNC(C)C(=O)Nc1c(C)csc1C(=O)OC (stereo not drawn) [Articaine HCl] | 
23 | 104 | 109 | 57 | C[C@@H](O)[C@H]1C(=O)N2C(C(=O)O)=C(S[C@@H]3CN[C@H](C(=O)N(C)C)C3)[C@H](C)[C@H]12 [Meropenem] | 
24 | 100 | 128 | 89 | OC1(c2ccc(Cl)c(C(F)(F)F)c2)CCN(CCCC(c2ccc(F)cc2)c2ccc(F)cc2)CC1 [Penfluridol] | 
25 | 98 | 93 | 103 | Clc1ccc(C(c2ccccc2Cl)C(Cl)Cl)cc1 (stereo not drawn) [Mitotane] | 
26 | 103 | 113 | 100 | CC(CCc1ccc(O)cc1)NCC(O)c1ccc(O)cc1.Cl (racemic) [Ractopamine HCl] | 
27 | 100 | 90 | 80 | C[C@@H]1CC[C@H]2[C@@H](C)C(=O)O[C@@H]3O[C@@]4(C)CC[C@@H]1[C@]32OO4 [Artemisinin] | 
28 | 95 | 100 | 95 | CCc1cc2c(cc1CC)CC(NC[C@H](O)c1ccc(O)c3[nH]c(=O)ccc13)C2 [Indacaterol Maleate] | 
29 | 86 | 72 | 90 | CC[C@H]1[C@@H](O)[C@@H]2[C@H](CC[C@]3(C)[C@@H]([C@H](C)CCC(=O)O)CC[C@@H]23)[C@@]2(C)CC[C@@H](O)C[C@@H]12 [Obeticholic Acid] | 
30 | 89 | 93 | 87 | CC[C@H](C)C(=O)O[C@H]1C[C@@H](C)C=C2C=C[C@H](C)[C@H](CC[C@@H]3C[C@@H](O)CC(=O)O3)[C@H]21 [Lovastatin] | 
31 | 112 | 109 | 80 | Cc1nc(C)c(Cl)c(O)c1Cl [Clopidol] | 
32 | 91 | 108 | 72 | CCCCN1CCCC[C@H]1C(=O)Nc1c(C)cccc1C [Levobupivacaine HCl] | 
33 | 100 | 112 | 92 | Nc1nc(=O)c2nc(CNc3ccc(C(=O)N[C@@H](CCC(=O)O)C(=O)O)cc3)cnc2[nH]1 [Folic acid] | 
34 | 96 | 106 | 71 | COc1ccc2c(c1)c(CC(=O)O)c(C)n2C(=O)c1ccc(Cl)cc1 [Indomethacin] | 
35 | 96 | 104 | 72 | CCc1cccc2c3c([nH]c12)C(CC)(CC(=O)O)OCC3 (stereo not drawn) [Etodolac] | 
36 | 81 | 61 | 100 | Nc1ccc2cc3ccc(N)cc3nc2c1 [Proflavine Hemisulfate] | 
37 | 105 | 112 | 81 | COC(=O)[C@@H]1CC2=CC(=O)CC[C@]2(C)[C@@]23O[C@@H]2C[C@@]2(C)[C@@H](CC[C@@]24CCC(=O)O4)[C@H]13 [Eplerenone] | 
38 | 136 | 139 | 95 | Cc1nc(C(=O)NCC(=O)O)c(O)c2ccc(Oc3ccccc3)cc12 [FG-4592] | 
